Results from PubChem BioAssay (NCI).
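Results reflect a 48-hour exposure of cells in 96-well plates to compound at five concentrations. At the TGI there is no net growth.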

Key:
Experiment in all cases: DTP human tumour cell line panel, 48 h
SF-268 CNS = system: SF-268 CNS
RPMI-8226 leukemia = system: RPMI-8226 leukemia
CAKI-1 renal = system: CAKI-1 renal
OVCAR-8 ovarian = system: OVCAR-8 ovarian
UACC-257 melanoma = system: UACC-257 melanoma
UO-31 renal = system: UO-31 renal
COLO 205 colon = system: COLO 205 colon
HCC-2998 colon = system: HCC-2998 colon
SW-620 colon = system: SW-620 colon
MOLT-4 leukemia = system: MOLT-4 leukemia
RXF 393 renal = system: RXF 393 renal
SK-MEL-28 melanoma = system: SK-MEL-28 melanoma
IGROV1 ovarian = system: IGROV1 ovarian
ACHN renal = system: ACHN renal
SNB-75 CNS = system: SNB-75 CNS
K-562 leukemia = system: K-562 leukemia
OVCAR-4 ovarian = system: OVCAR-4 ovarian
KM12 colon = system: KM12 colon
SF-295 CNS = system: SF-295 CNS
HL-60(TB) leukemia = system: HL-60(TB) leukemia

## CC(=O)OC1(C#N)CC2OC1C1C2N=NN1C(=O)OC(C)(C)C (stereo unspecified)
SF-268 CNS
  TGI: > 100 µM
RPMI-8226 leukemia
  TGI: > 100 µM
CAKI-1 renal
  TGI: > 100 µM
OVCAR-8 ovarian
  TGI: > 100 µM
UACC-257 melanoma
  TGI: > 100 µM
UO-31 renal
  TGI: > 100 µM
COLO 205 colon
  TGI: > 100 µM
HCC-2998 colon
  TGI: > 100 µM
SW-620 colon
  TGI: > 100 µM
MOLT-4 leukemia
  TGI: > 100 µM
RXF 393 renal
  TGI: > 100 µM
SK-MEL-28 melanoma
  TGI: 81.9 µM
IGROV1 ovarian
  TGI: > 100 µM
ACHN renal
  TGI: > 100 µM
SNB-75 CNS
  TGI: > 100 µM
K-562 leukemia
  TGI: > 100 µM
OVCAR-4 ovarian
  TGI: > 100 µM

## COC(=O)CN(C)P(=O)(N1CC1)N1CC1
SF-268 CNS
  TGI: > 100 µM
RPMI-8226 leukemia
  TGI: > 100 µM
CAKI-1 renal
  TGI: > 100 µM
OVCAR-8 ovarian
  TGI: > 100 µM
UACC-257 melanoma
  TGI: > 100 µM
UO-31 renal
  TGI: > 100 µM
COLO 205 colon
  TGI: > 100 µM
KM12 colon
  TGI: > 100 µM
HCC-2998 colon
  TGI: > 100 µM
SW-620 colon
  TGI: > 100 µM
MOLT-4 leukemia
  TGI: > 100 µM
RXF 393 renal
  TGI: > 100 µM
SK-MEL-28 melanoma
  TGI: > 100 µM
IGROV1 ovarian
  TGI: > 100 µM
ACHN renal
  TGI: > 100 µM
SF-295 CNS
  TGI: > 100 µM
SNB-75 CNS
  TGI: > 100 µM
K-562 leukemia
  TGI: > 100 µM
OVCAR-4 ovarian
  TGI: > 100 µM
HL-60(TB) leukemia
  TGI: > 100 µM

## COc1cc2c3c(c4cc(OC)c(OC)cc4c2cc1OC)C(=O)C1CCC(=O)N1C3 (stereo unspecified)
SF-268 CNS
  TGI: > 100 µM
RPMI-8226 leukemia
  TGI: > 100 µM
CAKI-1 renal
  TGI: 38.9 µM
OVCAR-8 ovarian
  TGI: > 100 µM
UACC-257 melanoma
  TGI: > 100 µM
COLO 205 colon
  TGI: > 100 µM
KM12 colon
  TGI: > 100 µM
HCC-2998 colon
  TGI: > 100 µM
SW-620 colon
  TGI: > 100 µM
MOLT-4 leukemia
  TGI: 37.5 µM
RXF 393 renal
  TGI: 89.6 µM
SK-MEL-28 melanoma
  TGI: > 100 µM
IGROV1 ovarian
  TGI: 88.5 µM
ACHN renal
  TGI: 59.7 µM
SF-295 CNS
  TGI: > 100 µM
SNB-75 CNS
  TGI: 32.2 µM
K-562 leukemia
  TGI: > 100 µM
OVCAR-4 ovarian
  TGI: > 100 µM
HL-60(TB) leukemia
  TGI: > 100 µM

## CCOC(=O)c1csc(NC(=O)CN2CCN(C)CC2)n1
RPMI-8226 leukemia
  TGI: > 100 µM
CAKI-1 renal
  TGI: > 100 µM
OVCAR-8 ovarian
  TGI: > 100 µM
UACC-257 melanoma
  TGI: > 100 µM
UO-31 renal
  TGI: > 100 µM
COLO 205 colon
  TGI: > 100 µM
KM12 colon
  TGI: > 100 µM
HCC-2998 colon
  TGI: > 100 µM
SW-620 colon
  TGI: > 100 µM
MOLT-4 leukemia
  TGI: > 100 µM
RXF 393 renal
  TGI: > 100 µM
SK-MEL-28 melanoma
  TGI: > 100 µM
IGROV1 ovarian
  TGI: > 100 µM
ACHN renal
  TGI: > 100 µM
SF-295 CNS
  TGI: > 100 µM
SNB-75 CNS
  TGI: > 100 µM
K-562 leukemia
  TGI: > 100 µM
OVCAR-4 ovarian
  TGI: > 100 µM
HL-60(TB) leukemia
  TGI: > 100 µM

## Cc1cccc(C(C)C)c1NC(=O)CC1Sc2ccccc2NC1=O (stereo unspecified)
SF-268 CNS
  TGI: > 100 µM
RPMI-8226 leukemia
  TGI: > 100 µM
CAKI-1 renal
  TGI: > 100 µM
OVCAR-8 ovarian
  TGI: > 100 µM
UACC-257 melanoma
  TGI: > 100 µM
UO-31 renal
  TGI: > 100 µM
COLO 205 colon
  TGI: > 100 µM
KM12 colon
  TGI: > 100 µM
HCC-2998 colon
  TGI: > 100 µM
SW-620 colon
  TGI: > 100 µM
MOLT-4 leukemia
  TGI: > 100 µM
RXF 393 renal
  TGI: > 100 µM
SK-MEL-28 melanoma
  TGI: > 100 µM
IGROV1 ovarian
  TGI: > 100 µM
ACHN renal
  TGI: > 100 µM
SF-295 CNS
  TGI: > 100 µM
SNB-75 CNS
  TGI: > 100 µM
K-562 leukemia
  TGI: > 100 µM
OVCAR-4 ovarian
  TGI: > 100 µM
HL-60(TB) leukemia
  TGI: > 100 µM

## COc1cc(/C=C/C(=O)O)ccc1C(=O)OCc1ccccc1
SF-268 CNS
  TGI: > 100 µM
RPMI-8226 leukemia
  TGI: > 100 µM
OVCAR-8 ovarian
  TGI: > 100 µM
UACC-257 melanoma
  TGI: > 100 µM
UO-31 renal
  TGI: > 100 µM
COLO 205 colon
  TGI: > 100 µM
KM12 colon
  TGI: > 100 µM
HCC-2998 colon
  TGI: > 100 µM
SW-620 colon
  TGI: > 100 µM
MOLT-4 leukemia
  TGI: > 100 µM
RXF 393 renal
  TGI: > 100 µM
SK-MEL-28 melanoma
  TGI: > 100 µM
IGROV1 ovarian
  TGI: > 100 µM
SF-295 CNS
  TGI: > 100 µM
SNB-75 CNS
  TGI: > 100 µM
K-562 leukemia
  TGI: > 100 µM
OVCAR-4 ovarian
  TGI: > 100 µM
HL-60(TB) leukemia
  TGI: > 100 µM

## O=C(CC(=O)c1ccccc1)CC(O)(c1ccccc1)c1ccccc1
SF-268 CNS
  TGI: 24.6 µM
RPMI-8226 leukemia
  TGI: > 100 µM
CAKI-1 renal
  TGI: 13.4 µM
OVCAR-8 ovarian
  TGI: 20.5 µM
UACC-257 melanoma
  TGI: 29.7 µM
UO-31 renal
  TGI: 18.4 µM
COLO 205 colon
  TGI: 24.6 µM
KM12 colon
  TGI: 21.9 µM
HCC-2998 colon
  TGI: 23.8 µM
SW-620 colon
  TGI: 18.1 µM
MOLT-4 leukemia
  TGI: 42.8 µM
SK-MEL-28 melanoma
  TGI: 31.9 µM
ACHN renal
  TGI: 24.5 µM
SF-295 CNS
  TGI: 17.1 µM
SNB-75 CNS
  TGI: 27.5 µM
K-562 leukemia
  TGI: 33.4 µM
OVCAR-4 ovarian
  TGI: 17.9 µM
HL-60(TB) leukemia
  TGI: 6.54 µM
